Measurements: patent EP0433163A2, “Process for the preparation of imidazobenzodiazepines and their salts” (ROUSSEL-UCLAF, priority 1989, dated 1991)

What was measured:
[1] = target: récepteurs de benzodiazépine; experiment: Benzodiazepine receptor binding (FRB), method of GB 2 128 989; settings: in vitro benzodiazepine receptor binding; type of value not stated; read-out: FRBnM
Description: La recherche de la fixation aux récepteurs de benzodiazépine (FRB) est réalisée par le procédé décrit dans GB 2 128 989.

[2] = test system: récepteurs de benzodiazépine; experiment: In vivo binding to benzodiazepine receptors, method of Goeders and Kuhar, Life Sciences (1985) 37 345
Description: La mesure de la fixation in vivo aux récepteurs de benzodiazépine est réalisée selon le procédé décrit par Goeders N.E. and Kuhar M J, Life Sciences (1985) 37 345.

SMILES	IC50 [1]	Fixation in vivo DE50 mg/pk ip [2]
CCOC(=O)c1ncn2c1CN(C)C(=O)c1cccc(F)c1-2 [EXEMPLE 1D, 5,6-dihydro-10-fluoro-5-méthyl-6-oxo-4H-imidazo [1,5-a] [1,4] benzodiazépine-3-carboxylate d'éthyle]	410 nM	21 mg/pk
CCOC(=O)c1ncn2c1CN(C)C(=O)c1c(F)ccc(F)c1-2 [EXEMPLE 1E, 7,10-difluoro-5,6-dihydro-5-méthyl-6-oxo-4H-imidazo [1,5-a] [1,4] benzodiazépine-3-carboxylate d'éthyle]	174 nM	1,1 mg/pk
CCOC(=O)c1ncn2c1CN(C)C(=O)c1c(F)c(F)c(F)c(F)c1-2 [EXEMPLE 1G, 5,6-dihydro-5-méthyl-6-oxo-7,8,9,10-tétrafluoro-4H-imidazo [1,5-a] [1,4] benzodiazépine-3-carboxylate d'éthyle]	7500 nM	100 mg/pk
CN1Cc2c(C(=O)C3CC3)ncn2-c2cccc(Cl)c2C1=O [EXEMPLE 3B, 7-chloro-5,6-dihydro-5-méthyl-6-oxo-4H-imidazo [1,5-a] [1,4] benzodiazépine-3-yl-cyclopropylméthanone]	7.7 nM	–
CN1Cc2c(C(=O)C3CC3)ncn2-c2cccc(C(F)(F)F)c2C1=O [EXEMPLE 3C, 5,6-dihydro-5-méthyl-6-oxo-7-trifluorométhyl-4H-imidazo [1,5-a] [1,4] benzodiazépine-3-yl-cyclopropylméthanone]	9.4 nM	0,05 mg/pk
CN1Cc2c(C(=O)C3CC3)ncn2-c2cccc(F)c2C1=O [EXEMPLE 3D, 5,6-dihydro-7-fluoro-5-méthyl-6-oxo-4H-imidazo [1,5-a] [1,4] benzodiazépine-3-yl-cyclopropylméthanone]	27 nM	–
O=C1NCc2c(C(=O)C3CC3)ncn2-c2ccccc21 [EXEMPLE 4, 5,6-dihydro-6-oxo-4H-imidazo [1,5-a] [1,4] benzodiazépine-3-yl-cyclopropylméthanone]	582 nM	–
CCOC(OCC)c1ncn2c1CN(C)C(=O)c1c(Cl)cccc1-2 [EXEMPLE 5, 7-chloro-3-diethoxyméthyl-5,6-dihydro-5-méthyl-4H-imidazo [1,5-a] [1,4] benzodiazépine-6(4H)-one]	339 nM	2,1 mg/pk
CCOC(=O)c1ncn2c1CN(C)C(=O)c1cccc(N)c1-2 [EXEMPLE 6, 5,6-dihydro-10-amino-5-méthyl-6-oxo-4H-imidazo [1,5-a] [1,4] benzodiazépine-3-carboxylate d'éthyle]	966 nM	–
